Drawing on patent publication US20220087996A1, “Histone acetylase p300 inhibitor and use thereof” (HINOVA PHARMACEUTICALS INC., priority 2018, published 2022), this text covers IC50 for 20 molecules.

Where two headings read alike, the source gives them in different places.

The target in one assay is T1, histone acetylase p300 (Homo sapiens, UniProt Q09472).
T1 construct: purchased BPS
The assay is described as follows: Inhibitory activity on histone acetylase p300 (radioisotope FlashPlate). The conditions noted are these: enzyme 0.2 nM, peptide substrate 600 nM, [3H]-Ac-CoA 250 nM; read-out: IC50 against P300. It is filed as biochemical. An excerpt:
Using the radioisotope FlashPlate technology, the half inhibitory concentration (IC50) of the compound according to the present invention was detected against histone acetylase p300 (purchased from BPS). […] Under the catalysis of histone acetylase p300, [3H]—Ac group in the isotope-labeled [3H]-Ac-CoA was transferred to the biotinylated histone polypeptide substrate (purchased from GL Biochem Ltd.), and then the biotinylated histone peptide substrate bound to the streptavidin on the FlashPlate board, so that the isotope was close enough to the FlashPlate board. Thus, the radiation energy of isotope could convert the scintillation fluid coated on the FlashPlate board into photons, that was able to be detected. Detailed procedures were as follows:
• 1× reaction buffer: 50 mM Tris-HCl, pH 7.5; 0.01% Tween-20 • Reaction stop solution: 750 μM Ac-CoA solution
Each test compound was dissolved into 10 mM with 100% DMSO, and then each compound was diluted to the desired concentration in Echo 384-well plate. […] 200 nl of 100% DMSO was transferred into the well as the negative control.
p300 was added to 1× reaction buffer to form a 2× enzyme solution (the final concentration of enzyme being 0.2 nM).
The peptide substrate and [3H]-Ac-CoA were added to the 1-fold reaction buffer, to form a 2-fold substrate solution (the final concentration of the substrate being 600 nM and 250 nM, respectively).
10 μl of 2-fold enzyme solution was added to the wells of 384-well reaction plate. […] The plate was centrifuged at 1000 rpm for 1 min and incubated at room temperature for 15 min.
10 μl of 2-fold substrate solution was added to each well of 384-well reaction plate. The plate was centrifuged at 1000 rpm for 1 min, and then reacted at 25° C. for 60 min.
10 μl of reaction stop solution was added to each well of 384-well reaction plate to stop the reaction. 25 μL solution was collected from each well of the test plate and transferred to Flashplate, that was placed at room temperature for 1 h. Then, Flashplate plate was washed three times with 0.1% Tween-20 solution.
4) Reading Data with MicroBeta 2
The data were copied from Microbeta 2. […] The maximum value is the conversion rate of the control DMSO, and the minimum value is the conversion rate of the control without enzyme activity.
The data were imported into Graph Pad Prism5, and the formula “log(inhibitor) vs. response−Variable slope” was used to perform curve fitting, to obtain the half inhibitory concentration (IC50).

For another assay, the system named is CWR22RV1 cells. Nature of the assay: Inhibition of proliferation of CWR22RV1 cells (CCK-8). It is filed as cell-based, human. The conditions noted are these: 6 days culture. In outline:
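Proliferation read-out was CCK-8 absorbance at 450 nm after 2.5 h, following 6-day culture with compound. Each well held 1500 CWR22RV1 cells; the 3-fold, 9-point series started at a final 10 μM in 0.1% DMSO. Dose-response-inhibition fit gave the IC50.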

The mark [1] stands for this setting: Homo sapiens, CWR22Rv1, 144 h, read-out: IC50 against CWR22RV1 cells.
The mark [2] stands for this setting: Homo sapiens, CWR22Rv1, 144 h, read-out: IC50 against CWR22RV1 cells (text).

One may read the IC50 as the concentration that inhibits the measured activity by half.

T1 sequence (Q09472 whole entry): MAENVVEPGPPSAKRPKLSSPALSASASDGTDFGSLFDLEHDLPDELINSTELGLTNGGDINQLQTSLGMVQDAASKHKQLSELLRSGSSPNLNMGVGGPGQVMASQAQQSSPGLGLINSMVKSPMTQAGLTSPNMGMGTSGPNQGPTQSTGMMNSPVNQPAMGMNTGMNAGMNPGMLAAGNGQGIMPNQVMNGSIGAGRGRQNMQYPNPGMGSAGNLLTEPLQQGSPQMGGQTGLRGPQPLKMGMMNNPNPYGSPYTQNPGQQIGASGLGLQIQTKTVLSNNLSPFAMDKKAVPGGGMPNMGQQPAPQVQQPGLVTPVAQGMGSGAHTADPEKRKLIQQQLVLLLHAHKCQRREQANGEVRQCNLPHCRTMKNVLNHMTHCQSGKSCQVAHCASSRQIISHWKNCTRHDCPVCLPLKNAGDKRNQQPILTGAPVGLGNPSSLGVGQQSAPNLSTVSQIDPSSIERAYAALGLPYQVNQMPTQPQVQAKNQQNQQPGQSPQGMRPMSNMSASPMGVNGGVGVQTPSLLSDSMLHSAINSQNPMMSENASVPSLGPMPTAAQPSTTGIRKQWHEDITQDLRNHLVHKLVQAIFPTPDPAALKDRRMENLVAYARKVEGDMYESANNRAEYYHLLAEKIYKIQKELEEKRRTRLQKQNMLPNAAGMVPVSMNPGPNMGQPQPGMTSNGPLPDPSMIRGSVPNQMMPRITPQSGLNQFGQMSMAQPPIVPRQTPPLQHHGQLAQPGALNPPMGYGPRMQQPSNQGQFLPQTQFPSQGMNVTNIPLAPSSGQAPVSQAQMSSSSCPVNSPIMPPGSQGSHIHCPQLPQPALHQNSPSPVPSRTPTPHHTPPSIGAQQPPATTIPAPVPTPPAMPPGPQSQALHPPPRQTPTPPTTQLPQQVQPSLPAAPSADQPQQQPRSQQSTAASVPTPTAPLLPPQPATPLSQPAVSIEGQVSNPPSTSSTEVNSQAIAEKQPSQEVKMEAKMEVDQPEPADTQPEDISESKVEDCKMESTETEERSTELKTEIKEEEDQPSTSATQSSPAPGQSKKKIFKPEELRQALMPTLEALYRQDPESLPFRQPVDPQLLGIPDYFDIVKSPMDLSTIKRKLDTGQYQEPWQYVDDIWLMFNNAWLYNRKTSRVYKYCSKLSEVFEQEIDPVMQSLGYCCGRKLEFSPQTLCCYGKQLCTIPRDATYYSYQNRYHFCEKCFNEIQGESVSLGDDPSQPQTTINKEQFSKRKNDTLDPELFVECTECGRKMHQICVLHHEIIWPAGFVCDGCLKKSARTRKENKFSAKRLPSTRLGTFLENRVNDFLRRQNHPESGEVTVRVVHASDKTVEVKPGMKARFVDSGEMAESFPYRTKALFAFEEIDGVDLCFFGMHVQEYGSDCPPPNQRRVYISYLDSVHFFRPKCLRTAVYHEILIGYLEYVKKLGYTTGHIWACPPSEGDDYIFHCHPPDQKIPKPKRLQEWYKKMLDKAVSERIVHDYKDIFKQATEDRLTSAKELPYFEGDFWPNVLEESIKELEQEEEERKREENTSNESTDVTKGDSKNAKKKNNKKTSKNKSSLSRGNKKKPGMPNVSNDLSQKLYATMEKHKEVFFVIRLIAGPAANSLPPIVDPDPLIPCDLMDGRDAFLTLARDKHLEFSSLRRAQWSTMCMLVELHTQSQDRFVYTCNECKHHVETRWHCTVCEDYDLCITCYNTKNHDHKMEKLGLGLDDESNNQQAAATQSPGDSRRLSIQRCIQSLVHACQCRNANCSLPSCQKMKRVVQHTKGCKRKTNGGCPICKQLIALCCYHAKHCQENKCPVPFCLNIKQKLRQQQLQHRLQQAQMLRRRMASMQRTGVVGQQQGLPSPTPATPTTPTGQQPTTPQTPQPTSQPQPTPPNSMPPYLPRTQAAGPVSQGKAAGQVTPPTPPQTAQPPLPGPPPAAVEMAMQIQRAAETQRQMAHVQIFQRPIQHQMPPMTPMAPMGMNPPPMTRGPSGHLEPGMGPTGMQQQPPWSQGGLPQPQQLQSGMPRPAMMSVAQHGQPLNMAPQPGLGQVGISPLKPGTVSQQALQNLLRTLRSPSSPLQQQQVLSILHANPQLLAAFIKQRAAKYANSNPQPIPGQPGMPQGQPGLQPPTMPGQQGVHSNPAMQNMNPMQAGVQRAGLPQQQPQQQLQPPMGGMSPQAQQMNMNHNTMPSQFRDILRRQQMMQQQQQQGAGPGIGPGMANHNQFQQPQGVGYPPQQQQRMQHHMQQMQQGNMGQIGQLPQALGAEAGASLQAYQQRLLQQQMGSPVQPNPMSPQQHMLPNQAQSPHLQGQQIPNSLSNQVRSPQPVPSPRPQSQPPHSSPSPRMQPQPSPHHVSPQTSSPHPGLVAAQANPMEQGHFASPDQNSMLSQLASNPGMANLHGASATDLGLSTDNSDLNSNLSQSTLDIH

Turning to `CNC(=O)Nc1ccc2c(c1)CC[C@@]21OC(=O)N(CC(=O)N2CCCC2c2ccccc2OC)C1=O` (stereo partly drawn) [Example 319, 1-((1R)-3′-(2-(2-(2-methoxyphenyl)pyrrolidin-1-yl)-2-oxoethyl)-2′,4′-dioxo-2,3-dihydrospiro[indene-1,5′-oxazolidine]-5-yl)-3-methylurea], the concentration for half-maximal inhibition (IC50) on histone acetylase p300 was 84 nM; in the assay on CWR22RV1 cells (setting [1]) it was over 2000 nM. Taken in the same sequence, the figures for `CC(=O)Nc1ccc2c(c1)CC[C@@]21OC(=O)N(CC(=O)N2[C@@H](C)CC[C@H]2c2ccc(F)cc2)C1=O` [Example 114, N—((R)-3′-(2-((2S,5S)-2-(4-fluorophenyl)-5-methylpyrrolidin-1-yl)-2-oxoethyl)-2′,4′-dioxo-2,3-dihydrospiro[indene-1,5′-oxazolidine]-5-yl)acetamide] were 26 nM and 500 to 2000 nM. Taken in the same sequence, the figures for `C[C@H]1CC[C@@H](c2ccc(F)cc2)N1C(=O)CN1C(=O)O[C@@]2(CCc3cc(NC(=O)NC4CC4)ccc32)C1=O` [Example 371, 1-((R)-3′-(2-((2S,5S)-2-(4-fluorophenyl)-5-methylpyrrolidin-1-yl)-2-oxoethyl)-2′,4′dioxo-2,3-dihydrospiro[indene-1,5-oxazolidine]-5-yl)-3-cyclopropylurea] were 3.1 nM and 500 to 2000 nM.

Turning to `CNC(=O)Nc1ccc2c(c1)CC[C@@]21OC(=O)N(CC(=O)N2[C@H](C)CC[C@@H]2c2ccc(F)cc2)C1=O` [Example 17, 1-((R)-3′-(2-((2R,5R)-2-(4-fluorophenyl)-5-methylpyrrolidin-1-yl)-2-oxoethyl)-2′,4′-dioxo-2,3-dihydrospiro[indene-1,5′-oxazolidine]-5-yl)-3-methylurea], the IC50 on histone acetylase p300 was 3600 nM; in the assay with CWR22RV1 cells (setting [1]), over 2000 nM.

As to `CNC(=O)Nc1ccc2c(c1)CC[C@@]21OC(=O)N(CC(=O)N2[C@@H](C)CC[C@H]2c2ccc(F)cc2)C1=O` [Example 14, 1-((R)-3′-(2-((2S,5S)-2-(4-fluorophenyl)-5-methylpyrrolidin-1-yl)-2-oxoethyl)-2′,4′-dioxo2,3-dihydrospiro[indene-1,5′-oxazolidine]-5-yl)-3-methylurea], the concentration for half-maximal inhibition (IC50) at histone acetylase p300 was 5.7 nM; in the assay on CWR22RV1 cells (setting [1]), at most 500 nM; with CWR22RV1 cells (setting [2]), at most 500 nM. Consider `CNC(=O)Nc1ccc2c(c1)CC[C@@]21OC(=O)N(CC(=O)N2C(C)CCC2c2ccc(OC)cc2)C1=O` (stereo partly drawn) [Example 350, 1-((1R)-3′-(2-(2-(4-methoxyphenyl)-5-methylpyrrolidin-1-yl)-2-oxoethyl)-2′,4′-dioxo-2,3-dihydrospiro[indene-1,5′-oxazolidine]-5-yl)-3-methylurea], for which the results for the 50% inhibitory concentration (IC50) on histone acetylase p300 and with CWR22RV1 cells (setting [1]) were 33 nM and 500 to 2000 nM, respectively.

For the molecule `CNC(=O)Nc1ccc2c(c1)CC[C@@]21OC(=O)N(CC(=O)N2[C@@H](C(C)C)CC[C@H]2c2ccc(F)cc2)C1=O` [Compound 48], at histone acetylase p300, the IC50 came to 4.5 nM. With `CNC(=O)Nc1ccc2c(c1)CC[C@@]21OC(=O)N(CC(=O)N2[C@@H](C)CC[C@H]2C2CCC(F)(F)CC2)C1=O` [Example 209, 1-((R)-3′-(2-((2S,5S)-2-(4,4-difluorocyclohexyl)-5-methylpyrrolidin-1-yl)-2-oxoethyl)-2′,4′-dioxo-2,3-dihydrospiro[indene-1,5′-oxazolidine]-5-yl)-3-methylurea], the values for the IC50 at histone acetylase p300, in the assay with CWR22RV1 cells (setting [1]) and in the assay with CWR22RV1 cells (setting [2]) were 11 nM, at most 500 nM and at most 500 nM, respectively.

Turning to `COC(=O)Nc1ccc2c(c1)CC[C@@]21OC(=O)N(CC(=O)N2[C@@H](C)CC[C@H]2c2ccc(F)cc2)C1=O` [Example 115, ((R)-3′-(2-((2S,5S)-2-(4-fluorophenyl)-5-methylpyrrolidin-1-yl)-2-oxoethyl)-2′,4′-dioxo-2,3-dihydrospiro[indene-1,5′-oxazolidine]-5-yl)carbamic acid methyl ester], the results for the concentration for half-maximal inhibition (IC50) on histone acetylase p300 and with CWR22RV1 cells (setting [1]) were 64 nM and over 2000 nM, respectively. Taken in the same sequence, the figures for `CNC(=O)Nc1ccc2c(c1)CC[C@@]21OC(=O)N(CC(=O)N2C(C)CCC2C2CCCCC2)C1=O` (stereo partly drawn) [Example 96, 1-((1R)-3′-(2-(2-cyclohexyl-5-methylpyrrolidin-1-yl)-2-oxoethyl)-2′,4′-dioxo-2,3-dihydrospiro[indene-1,5′-oxazolidine]-5-yl)-3-methylurea] were 7.5 nM and at most 500 nM. Consider `CNC(=O)Nc1ccc2c(c1)CC[C@@]21OC(=O)N(CC(=O)N2[C@@H](COC)CC[C@H]2c2ccc(F)cc2)C1=O` [Example 362, 1-(3′-(2-((2S,5R)-2-(4-fluorophenyl)-5-(methoxymethyl)pyrrolidin-1-yl)-2-oxoethyl)-2′,4′-dioxo-2,3-dihydrospiro[indene-1,5′-oxazolidine]-5-yl)-3-methylurea], for which the figures for the IC50 at histone acetylase p300, in the assay on CWR22RV1 cells (setting [1]) and with CWR22RV1 cells (setting [2]) were 15 nM, at most 500 nM and at most 500 nM, respectively. On to `CNC(=O)Nc1ccc2c(c1)CC[C@@]21OC(=O)N(CC(=O)N2C(c3ccc(F)cc3F)CC[C@@H]2C)C1=O` (stereo partly drawn) [Example 370, 1-((R)-3′-(2-((5S)-2-(2,4-difluorophenyl)-5-methylpyrrolidin-1-yl)-2-oxoethyl)-2′,4′-dioxo-2,3-dihydrospiro[indene-1,5′-oxazolidine]-5-yl)-3-methylurea], for which the IC50 on histone acetylase p300 is 103 nM; with CWR22RV1 cells (setting [1]), over 2000 nM.

As for `CNC(=O)Nc1ccc2c(c1)CC[C@@]21OC(=O)N(CC(=O)N2[C@@H](C)CC[C@H]2c2ccc(F)c(Cl)c2)C1=O` [Example 213, 1-((R)-3′-(2-((2S,5S)-2-(3-chloro-4-fluorophenyl)-5-methylpyrrolidin-1-yl)-2-oxoethyl)-2′,4′-dioxo-2,3-dihydrospiro[indene-1,5′-oxazolidine]-5-yl)-3-methylurea], the results for the half-maximal inhibitory concentration (IC50) at histone acetylase p300, in the assay with CWR22RV1 cells (read-out: IC50 against CWR22RV1 cells) and with CWR22RV1 cells (setting [2]) were 13 nM, at most 500 nM and at most 500 nM, respectively.

Regarding `CNC(=O)Nc1ccc2c(c1)CC[C@@]21OC(=O)N(CC(=O)N2CCCC2c2ccc(OC)cc2OC)C1=O` (stereo partly drawn) [Example 341, 1-((1R)-3′-(2-(2-(2,4-dimethoxyphenyl)pyrrolidin-1-yl)-2-oxoethyl)-2′,4′-dioxo-2,3-dihydrospiro[indene-1,5′oxazolidin]-5-yl)-3-methylurea], the IC50 in the assay on CWR22RV1 cells (setting [1]) was over 2000 nM.

Take `CNC(=O)Nc1ccc2c(c1F)CC[C@@]21OC(=O)N(CC(=O)N2[C@@H](C)CC[C@H]2c2ccc(F)c(F)c2)C1=O` [Example 383, 1-((R)-3′-(2-((2S,5S)-2-(3,4-difluorophenyl)-5-methylpyrrolidin-1-yl)-2-oxoethyl)-4-fluoro-2′,4′-dioxo-2,3-dihydrospiro[indene-1,5′-oxazolidine]-5-yl)-3-methylurea]: the IC50 in the assay on CWR22RV1 cells (setting [1]) was over 2000 nM. The same measure, in the same setting: the figure for `CNC(=O)Nc1ccc2c(c1)CC[C@@]21OC(=O)N(CC(=O)N2C(C)CCC2c2ccc(F)cc2Br)C1=O` (stereo partly drawn) [Example 354, 1-((1R)-3′-(2-(2-(2-bromo-4-fluorophenyl)-5-methylpyrrolidin-1-yl)-2-oxoethyl)-2′,4′-dioxo-2,3-dihydrospiro[indene-1,5′-oxazolidine]-5-yl)-3-methylurea] is 500 to 2000 nM. Consider `Cc1noc(C)c1-c1ccc2c(c1)C1(CC1)CC21OC(=O)N(CC(=O)N(Cc2ccc(F)cc2)[C@@H](C)C(F)(F)F)C1=O` (stereo partly drawn) [Example 308, 2-(5-(3,5-dimethylisoxazol-4-yl)-2′,4′-dioxo-2,3-dihydrospiro[cyclopropane-indene-1,5′-oxazole]-3′-yl)-N-(4-fluorobenzyl)-N—((S)-1,1,1-trifluoropropan-2-yl)acetamide], for which the concentration for half-maximal inhibition (IC50) in the assay on CWR22RV1 cells (setting [1]) and in the assay with CWR22RV1 cells (setting [2]) was at most 500 nM throughout. Regarding `CNC(=O)Nc1ccc2c(c1)CC[C@@]21OC(=O)N(CC(=O)N2CCCC2c2cccc[n+]2[O-])C1=O` (stereo partly drawn) [Example 343, 2-(1-(2-((R)-5-(3-methylureido)-2′,4′-dioxo-2,3-dihydrospiro[indene-1,5′-oxazole]-3′-yl)acetyl)pyrrolidin-2-yl)pyridin-1-oxide], the concentration for half-maximal inhibition (IC50) in the assay on CWR22RV1 cells (setting [1]) was over 2000 nM.

With `CNC(=O)Nc1ccc2c(c1)CC[C@@]21OC(=O)N(CC(=O)N2C(c3ccncc3)CC[C@@H]2C)C1=O` (stereo partly drawn) [Example 375, 1-methyl-3-(3′-(2-((2S)-2-methyl-5-(pyridin-4-yl)pyrrolidin-1-yl)-2-oxoethyl)-2′,4′-dioxo-2,3-dihydrospiro[indene-1,5′-oxazolidine]-5-yl)urea], the IC50 with CWR22RV1 cells (setting [1]) was over 2000 nM. Still for that read-out and setting: the figure for `CNC(=O)Nc1ccc2c(c1)CC[C@]21OC(=O)N(CC(=O)N2CCCC[C@H]2c2ccccc2)C1=O` [Example 4] is over 2000 nM.
